Measurements reported in ChEMBL document CHEMBL5665443, “Enzyme Inhibitor Single Concentration assay results for EUbOPEN Chemogenomics Library” (2024).

Experiments:
[1] = molecular target: DNA-3-methyladenine glycosylase (Homo sapiens) (UniProt P29372); details: Compound Concentration 10.0 uM;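 also: enzyme assay where MPG cuts a quenched duplex DNA oligonucleotide probe, paired with APE1 for strand incision and turnover, read as fluorescence at 594 nm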
[2] = molecular target: T1, Adenine DNA glycosylase (Homo sapiens) (UniProt Q9UIF7); details: Compound Concentration 10.0 uM, Hit No;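 also: human MUTYH activity read as 594 nm fluorescence from cleavage and release of a quenched DNA duplex, coupled with APE1 for strand incision, lower signal meaning inhibition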
T1 sequence (whole entry): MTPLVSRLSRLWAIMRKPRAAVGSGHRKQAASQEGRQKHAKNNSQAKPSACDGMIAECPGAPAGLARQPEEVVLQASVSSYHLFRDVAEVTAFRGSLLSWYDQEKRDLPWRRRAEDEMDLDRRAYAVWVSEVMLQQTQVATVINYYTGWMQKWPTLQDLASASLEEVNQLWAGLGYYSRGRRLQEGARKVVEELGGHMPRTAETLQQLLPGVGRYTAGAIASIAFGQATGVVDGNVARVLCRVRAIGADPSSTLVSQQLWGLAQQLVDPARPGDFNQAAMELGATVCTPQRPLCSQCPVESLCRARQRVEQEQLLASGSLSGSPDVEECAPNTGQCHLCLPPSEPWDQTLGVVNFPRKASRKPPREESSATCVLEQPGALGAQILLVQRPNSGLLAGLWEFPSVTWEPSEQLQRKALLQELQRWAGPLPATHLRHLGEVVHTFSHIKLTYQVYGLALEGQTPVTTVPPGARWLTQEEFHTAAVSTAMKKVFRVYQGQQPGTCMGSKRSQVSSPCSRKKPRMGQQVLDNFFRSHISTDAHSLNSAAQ

[3] = molecular target: Endonuclease 8-like 1 (Homo sapiens) (UniProt Q96FI4); details: Compound Concentration 10.0 uM, Hit No;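 also: fluorescence at 594 nm from quenched duplex DNA oligonucleotides released by NEIL1 cleavage and strand separation, reported as reduction of this enzyme activity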
Endonuclease 8-like 1 (Homo sapiens), sequence (Q96FI4 whole entry): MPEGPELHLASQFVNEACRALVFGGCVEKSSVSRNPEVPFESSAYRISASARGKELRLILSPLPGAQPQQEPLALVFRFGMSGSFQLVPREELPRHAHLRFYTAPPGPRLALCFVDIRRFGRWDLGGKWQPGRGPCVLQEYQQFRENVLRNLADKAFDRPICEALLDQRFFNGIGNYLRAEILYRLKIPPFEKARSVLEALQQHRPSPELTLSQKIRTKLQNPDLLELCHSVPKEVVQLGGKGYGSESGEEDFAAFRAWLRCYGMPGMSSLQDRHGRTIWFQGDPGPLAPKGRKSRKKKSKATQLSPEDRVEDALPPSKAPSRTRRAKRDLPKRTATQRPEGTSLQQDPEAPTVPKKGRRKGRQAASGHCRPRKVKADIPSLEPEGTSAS

[4] = molecular target: T2, Endonuclease 8-like 2 (Homo sapiens) (UniProt Q969S2); details: Compound Concentration 10.0 uM, Hit No;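 also: fluorescence at 594 nm reports NEIL2 cutting and release of a quenched double-stranded DNA oligo substrate, reduced signal read as inhibition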
T2 sequence (whole entry): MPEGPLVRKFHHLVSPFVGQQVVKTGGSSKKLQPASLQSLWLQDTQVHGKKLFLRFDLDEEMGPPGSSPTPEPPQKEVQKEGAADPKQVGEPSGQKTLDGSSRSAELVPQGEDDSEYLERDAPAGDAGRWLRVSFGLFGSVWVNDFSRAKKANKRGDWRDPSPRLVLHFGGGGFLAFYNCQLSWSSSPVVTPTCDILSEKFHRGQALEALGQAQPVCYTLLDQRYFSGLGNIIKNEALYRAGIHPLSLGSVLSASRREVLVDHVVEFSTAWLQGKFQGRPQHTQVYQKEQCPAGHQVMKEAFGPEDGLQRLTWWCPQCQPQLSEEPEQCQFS

[5] = molecular target: T3, Endonuclease III-like protein 1 (Homo sapiens) (UniProt P78549); details: Compound Concentration 10.0 uM, Hit No;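 also: enzyme assay tracking NTHL1 cutting and release of a quenched double-stranded DNA oligo substrate, read as fluorescence at 594 nm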
T3 sequence (whole entry): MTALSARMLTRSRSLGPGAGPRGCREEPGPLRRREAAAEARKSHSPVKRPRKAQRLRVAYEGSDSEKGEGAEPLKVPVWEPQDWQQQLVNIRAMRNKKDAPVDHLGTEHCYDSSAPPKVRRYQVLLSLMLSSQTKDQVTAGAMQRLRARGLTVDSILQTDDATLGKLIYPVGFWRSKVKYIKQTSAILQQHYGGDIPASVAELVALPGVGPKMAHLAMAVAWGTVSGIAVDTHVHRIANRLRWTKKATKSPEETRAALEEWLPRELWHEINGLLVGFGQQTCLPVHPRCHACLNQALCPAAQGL

[6] = molecular target: N-glycosylase/DNA lyase (Homo sapiens) (UniProt O15527); details: Compound Concentration 10.0 uM, Hit No;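 also: OGG1 cleavage of a quenched duplex DNA oligonucleotide, coupled to APE1 for strand incision, read as fluorescence at 594 nm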
N-glycosylase/DNA lyase (Homo sapiens), sequence (O15527 whole entry): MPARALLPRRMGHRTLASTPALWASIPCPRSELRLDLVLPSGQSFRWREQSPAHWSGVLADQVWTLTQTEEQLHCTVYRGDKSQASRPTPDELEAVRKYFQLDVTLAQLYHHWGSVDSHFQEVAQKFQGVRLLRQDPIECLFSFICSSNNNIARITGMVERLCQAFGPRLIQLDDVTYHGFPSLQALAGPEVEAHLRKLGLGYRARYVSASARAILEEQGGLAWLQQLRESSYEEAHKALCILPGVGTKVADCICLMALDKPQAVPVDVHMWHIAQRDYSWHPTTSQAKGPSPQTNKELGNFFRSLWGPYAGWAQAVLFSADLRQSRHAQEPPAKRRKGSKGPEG

[7] = molecular target: G/T mismatch-specific thymine DNA glycosylase (Homo sapiens) (UniProt Q13569); details: Compound Concentration 10.0 uM;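 also: human TDG cleavage of quenched duplex DNA oligonucleotides coupled to APE1, strand release read as fluorescence at 594 nm, inhibition of TDG activity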
G/T mismatch-specific thymine DNA glycosylase (Homo sapiens), sequence (Q13569 whole entry): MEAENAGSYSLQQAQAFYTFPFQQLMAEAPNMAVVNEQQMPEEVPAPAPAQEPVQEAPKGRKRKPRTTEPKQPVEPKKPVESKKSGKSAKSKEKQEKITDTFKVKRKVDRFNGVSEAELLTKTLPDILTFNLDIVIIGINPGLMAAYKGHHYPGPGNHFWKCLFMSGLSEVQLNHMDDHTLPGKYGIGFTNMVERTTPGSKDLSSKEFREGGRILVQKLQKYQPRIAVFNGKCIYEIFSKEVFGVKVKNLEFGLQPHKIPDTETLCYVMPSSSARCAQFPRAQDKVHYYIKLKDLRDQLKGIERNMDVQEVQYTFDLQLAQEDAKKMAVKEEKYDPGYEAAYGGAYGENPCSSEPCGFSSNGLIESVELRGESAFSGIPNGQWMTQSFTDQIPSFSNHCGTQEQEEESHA

[8] = molecular target: Uracil-DNA glycosylase (Homo sapiens) (UniProt P13051); details: Compound Concentration 10.0 uM, Hit No;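 also: UNG excision on a quenched double-stranded DNA oligo probe, with APE1 added for strand incision and turnover, read as fluorescence at 594 nm as strands separate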
Uracil-DNA glycosylase (Homo sapiens), sequence (P13051 whole entry, the tested form may be a part): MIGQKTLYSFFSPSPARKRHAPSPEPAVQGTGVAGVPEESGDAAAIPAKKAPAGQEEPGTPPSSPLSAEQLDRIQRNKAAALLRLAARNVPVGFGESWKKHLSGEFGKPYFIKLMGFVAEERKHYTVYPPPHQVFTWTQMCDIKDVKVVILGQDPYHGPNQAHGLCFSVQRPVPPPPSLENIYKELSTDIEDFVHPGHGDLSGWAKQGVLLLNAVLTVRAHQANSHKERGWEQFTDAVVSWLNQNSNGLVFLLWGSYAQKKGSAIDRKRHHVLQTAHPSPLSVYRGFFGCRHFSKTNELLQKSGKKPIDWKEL

[9] = molecular target: Methyl-CpG-binding domain protein 4 (Homo sapiens) (UniProt O95243); details: Compound Concentration 10.0 uM;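 also: MBD4 activity read as fluorescence at 594 nm from cleavage and release of a quenched duplex DNA oligonucleotide, with APE1 coupled to incise the strand and raise turnover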
Methyl-CpG-binding domain protein 4 (Homo sapiens), sequence (O95243 whole entry, the tested form may be a part): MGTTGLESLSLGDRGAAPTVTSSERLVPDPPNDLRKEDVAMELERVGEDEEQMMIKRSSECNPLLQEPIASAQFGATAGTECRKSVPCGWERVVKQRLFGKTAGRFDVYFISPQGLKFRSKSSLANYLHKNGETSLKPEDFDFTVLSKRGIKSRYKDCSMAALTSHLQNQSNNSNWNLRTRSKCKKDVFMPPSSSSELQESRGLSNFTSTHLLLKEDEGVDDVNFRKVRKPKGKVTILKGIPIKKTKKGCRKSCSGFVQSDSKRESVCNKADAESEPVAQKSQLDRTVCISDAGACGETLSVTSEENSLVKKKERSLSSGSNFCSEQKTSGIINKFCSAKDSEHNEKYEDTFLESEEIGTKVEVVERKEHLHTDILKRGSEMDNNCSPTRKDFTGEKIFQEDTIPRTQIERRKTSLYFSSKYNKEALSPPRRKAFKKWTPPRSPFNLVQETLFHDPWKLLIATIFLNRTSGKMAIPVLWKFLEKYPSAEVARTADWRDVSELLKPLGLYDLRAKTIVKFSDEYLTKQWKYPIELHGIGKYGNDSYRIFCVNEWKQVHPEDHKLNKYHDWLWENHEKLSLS

[10] = molecular target: T4, Single-strand selective monofunctional uracil DNA glycosylase (Homo sapiens) (UniProt Q53HV7); details: Compound Concentration 10.0 uM, Hit No;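 also: enzymatic SMUG1 assay coupled with APE1, reading fluorescence at 594 nm released when a quenched double-stranded DNA oligonucleotide substrate is cleaved and separated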
T4 sequence (whole entry): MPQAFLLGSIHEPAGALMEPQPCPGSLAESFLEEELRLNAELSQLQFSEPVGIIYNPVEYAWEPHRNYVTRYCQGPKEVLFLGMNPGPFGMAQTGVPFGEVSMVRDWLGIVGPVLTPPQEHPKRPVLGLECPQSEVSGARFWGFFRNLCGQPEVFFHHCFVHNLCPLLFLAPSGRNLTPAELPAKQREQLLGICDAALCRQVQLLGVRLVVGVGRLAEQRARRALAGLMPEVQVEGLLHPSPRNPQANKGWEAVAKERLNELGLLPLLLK

DNA-3-methyladenine glycosylase (Homo sapiens), sequence (P29372 whole entry): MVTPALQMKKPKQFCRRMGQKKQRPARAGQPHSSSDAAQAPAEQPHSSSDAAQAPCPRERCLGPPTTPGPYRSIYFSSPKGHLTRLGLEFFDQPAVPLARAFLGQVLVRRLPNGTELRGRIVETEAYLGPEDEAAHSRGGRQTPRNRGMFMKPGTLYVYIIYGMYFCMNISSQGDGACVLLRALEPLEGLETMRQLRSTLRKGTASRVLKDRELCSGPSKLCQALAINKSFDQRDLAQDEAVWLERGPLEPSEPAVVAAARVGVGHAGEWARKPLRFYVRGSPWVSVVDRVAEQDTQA

Cc1ccccc1-c1cc(N2CCN(C)CC2)ncc1N(C)C(=O)C(C)(C)c1cc(C(F)(F)F)cc(C(F)(F)F)c1
inhibition ([1]; Hit No): -7.15%
inhibition [2]: -1.13%
inhibition [3]: 0.537%
inhibition [4]: 1.76%
inhibition [5]: 21.7%
inhibition [6]: -7.29%
inhibition ([7]; Hit No): -5.37%

Cc1cnc(-c2cc(N3CCN(C(=O)CCS(C)(=O)=O)CC3)ncc2Cl)c(C)c1
inhibition ([1]; Hit No): -9.96%
inhibition [2]: 0.917%
inhibition [4]: -4.23%
inhibition [5]: 15.8%
inhibition [6]: -3.06%

CN(C)CC[C@@H](c1ccc(Cl)cc1)c1ccccn1
inhibition ([1]; Hit No): 0.18%
inhibition [2]: 11.5%
inhibition [3]: -2.28%
inhibition [4]: 12%
inhibition [5]: 6.32%
inhibition [6]: -3.11%
inhibition ([7]; Hit No): 6.86%
inhibition [8]: -8.86%

O=C(O)CC/C=C\C[C@@H]1CO[C@H](c2ccccc2Cl)O[C@@H]1c1ccccc1O
inhibition ([9]; Hit No): 0.092%
inhibition ([1]; Hit No): 4.5%
inhibition [2]: 8.47%
inhibition [3]: -2.87%
inhibition [4]: 0.265%
inhibition [6]: -7.71%
inhibition [10]: 0.5%
inhibition ([7]; Hit No): 13.8%
inhibition [8]: -7.83%

COc1ccc(CNC(=O)c2cc(-c3cncc(Cl)c3)cnc2-c2ccccn2)nc1OC
inhibition ([9]; Hit No): 0.324%
inhibition ([1]; Hit No): -0.668%
inhibition [2]: -1%
inhibition [3]: -8.51%
inhibition [4]: 6.5%
inhibition [6]: -1.43%
inhibition [10]: -1.29%
inhibition ([7]; Hit No): 11.4%
inhibition [8]: -5.71%

CC(C)NCC(O)COc1ccc(CCOCC2CC2)cc1 (stereo not drawn)
inhibition ([9]; Hit No): 4.74%
inhibition ([1]; Hit No): -1.52%
inhibition [2]: -5.48%
inhibition [3]: -5.99%
inhibition [4]: -0.983%
inhibition [6]: -0.494%
inhibition [10]: 5.49%
inhibition ([7]; Hit No): 21.4%
inhibition [8]: -7.33%

Cc1nnc2n1-c1sc(CCC(=O)N3CCOCC3)cc1C(c1ccccc1Cl)=NC2
inhibition ([9]; Hit No): -1.19%
inhibition ([1]; Hit No): -4.33%
inhibition [2]: 16.7%
inhibition [3]: 5.28%
inhibition [4]: 7.25%
inhibition [6]: 0.211%
inhibition [10]: -7.88%
inhibition ([7]; Hit No): 14.6%
inhibition [8]: -6.5%

COc1ccc(C2(O)OC(=O)C(c3ccc4c(c3)OCO4)=C2Cc2cc(OC)c(OC)c(OC)c2)cc1 (stereo not drawn)
inhibition ([1]; Hit No): 13.2%
inhibition [2]: 22.7%
inhibition [3]: -4.95%
inhibition [5]: 15.1%
inhibition [6]: -9.68%
inhibition ([7]; Hit No): 8.23%
inhibition [8]: -1.01%

Cc1ccccc1C(=O)Nc1ccc(C(=O)N2CCCC(O)c3cc(Cl)ccc32)c(C)c1 (stereo not drawn)
inhibition ([9]; Hit No): -1.3%
inhibition ([1]; Hit No): 0.836%
inhibition [2]: 12.2%
inhibition [3]: 6.76%
inhibition [4]: 1.01%
inhibition [6]: -1.2%
inhibition [10]: -8.66%
inhibition ([7]; Hit No): 18.4%
inhibition [8]: -8.3%

CCC(=O)OCC(=O)[C@@]1(OC(=O)CC)[C@@H](C)C[C@H]2[C@@H]3CCC4=CC(=O)C=C[C@]4(C)[C@@]3(Cl)[C@@H](O)C[C@@]21C
inhibition ([1]; Hit No): 2.96%
inhibition [2]: 11.3%
inhibition [3]: 7.21%
inhibition [4]: 7%
inhibition [5]: 22.4%
inhibition [6]: -5.93%
inhibition ([7]; Hit No): -4.42%

NC(=O)c1ccc(CNC(=O)NC[C@H]2CN(Cc3ccc(Cl)c(Cl)c3)CCO2)cc1
inhibition ([1]; Hit No): -0.36%
inhibition [2]: 5.52%
inhibition [3]: 7.06%
inhibition [4]: 16.2%
inhibition [5]: 15.8%
inhibition [6]: -7.25%
inhibition ([7]; Hit No): 19.2%

O=c1ccn([C@@H]2O[C@H](COP(=O)(O)OP(=O)(O)OP(=O)(O)OP(=O)(O)OC[C@H]3O[C@@H](n4ccc(=O)[nH]c4=O)[C@H](O)[C@@H]3O)[C@@H](O)[C@H]2O)c(=O)[nH]1
inhibition ([1]; Hit No): 0.18%
inhibition [2]: -6.25%
inhibition [3]: 3.21%
inhibition [4]: -3.48%
inhibition [5]: 20.2%
inhibition [6]: -1.8%
inhibition ([7]; Hit No): 3.7%

CCCCCNC(=N)N/N=C/c1c[nH]c2ccc(OC)cc12
inhibition ([9]; Hit Yes): 114%
inhibition ([1]; Hit Yes): 108%
inhibition [2]: 114%
inhibition [3]: -9.54%
inhibition [4]: 20.7%
inhibition [6]: 2.43%
inhibition [10]: -3.67%
inhibition ([7]; Hit Yes): 103%
inhibition [8]: -3.68%

CC(C)(C#Cc1ccc(NC(=O)COc2ccccc2C(=O)c2ccccc2)c(Cl)c1)C(=O)O
inhibition ([9]; Hit No): 83.7%
inhibition ([1]; Hit No): 115%
inhibition [2]: 16.2%
inhibition [3]: -9.68%
inhibition [4]: 15.6%
inhibition [6]: 49.5%
inhibition [10]: 12.2%
inhibition ([7]; Hit No): 61.6%
inhibition [8]: 7.11%

C/C(=N\NC(=O)[C@@H]1C(=O)NC[C@H]1c1ccccc1)c1cccc(Br)c1
inhibition ([9]; Hit No): 0.963%
inhibition ([1]; Hit No): -1.9%
inhibition [2]: 11%
inhibition [3]: -1.98%
inhibition [4]: 6.5%
inhibition [6]: -0.141%
inhibition [10]: 9.22%
inhibition ([7]; Hit No): 17.2%
inhibition [8]: -1.98%

C[C@@H](NCCc1ccc(O)cc1)[C@@H](O)c1ccc(O)cc1 (relative stereo)
inhibition ([1]; Hit No): -3.37%
inhibition [2]: 11.7%
inhibition [3]: -5.25%
inhibition [4]: 6.25%
inhibition [5]: 17.3%
inhibition [6]: -4.18%
inhibition ([7]; Hit No): 5%

CCOc1nc2cccc(C(=O)O)c2n1Cc1ccc(-c2ccccc2-c2nnn[nH]2)cc1
inhibition ([9]; Hit No): 1.2%
inhibition ([1]; Hit No): -3.68%
inhibition [2]: 2.84%
inhibition [3]: 2.02%
inhibition [4]: 7%
inhibition [6]: 0.813%
inhibition [10]: -0.0333%
inhibition ([7]; Hit No): 6.47%
inhibition [8]: -8.46%

C/N=C(/NC#N)NCCSCc1csc(NC(=N)N)n1
inhibition ([1]; Hit No): -5.07%
inhibition [2]: -6.76%
inhibition [3]: -6.13%
inhibition [5]: -9.8%
inhibition [6]: -8.12%
inhibition [10]: -3.81%
inhibition ([7]; Hit No): 1.2%

Cn1c(SCc2ccc(C(C)(C)C)cc2)nc(N)cc1=O
inhibition ([9]; Hit No): 12.4%
inhibition ([1]; Hit No): 9.09%
inhibition [2]: 6.33%
inhibition [3]: -0.435%
inhibition [4]: 5.25%
inhibition [6]: -4.44%
inhibition [10]: -4.37%
inhibition ([7]; Hit No): 8.05%
inhibition [8]: -6.37%

O=C(O)C1CN(Cc2ccc(-c3nc4cc(Cc5ccccc5F)ccc4s3)c(F)c2)C1
inhibition ([1]; Hit No): -8.77%
inhibition [2]: -0.363%
inhibition [3]: -0.945%
inhibition [4]: -3.48%
inhibition [5]: 11.4%
inhibition [6]: -3.25%
inhibition ([7]; Hit No): -3.37%

CCc1ccc(OCc2ccccc2C(=O)Nc2ccc3nc(C)cc(N)c3c2)cc1
inhibition ([9]; Hit No): 43.2%
inhibition ([1]; Hit Yes): 71.5%
inhibition [2]: 77.8%
inhibition [3]: -4.06%
inhibition [4]: 16.5%
inhibition [6]: 12.5%
inhibition [10]: -3.13%
inhibition ([7]; Hit Yes): 82.5%
inhibition [8]: -2.29%

Cc1ccc(O)c([C@H](CCN(C(C)C)C(C)C)c2ccccc2)c1
inhibition ([1]; Hit No): -5.07%
inhibition [2]: 8.6%
inhibition [3]: 5.28%
inhibition [4]: 2.01%
inhibition [5]: -3.21%
inhibition [6]: -3.4%
inhibition ([7]; Hit No): 2.93%

Cc1noc(-c2ccc(-c3ccc(CC(=O)O)cc3)cc2)c1NC(=O)O[C@H](C)c1ccccc1Cl
inhibition ([9]; Hit No): 45.9%
inhibition ([1]; Hit No): 10.4%
inhibition [2]: 53.1%
inhibition [3]: -3.47%
inhibition [4]: -4.48%
inhibition [6]: 10.8%
inhibition [10]: -3.86%
inhibition ([7]; Hit No): 43.6%
inhibition [8]: -9.06%

COc1cc2nc(N3CCN(C(=O)c4ccco4)CC3)nc(N)c2cc1OC
inhibition ([9]; Hit No): 7.24%
inhibition ([1]; Hit No): 11.1%
inhibition [2]: 14%
inhibition [3]: 5.73%
inhibition [4]: 10%
inhibition [6]: 0.771%
inhibition [10]: -2.6%
inhibition ([7]; Hit No): 4.76%
inhibition [8]: -8.11%
